Counter-ions that a name gives are not always drawn.
Target: T1, human TRPC6 (Homo sapiens, UniProt Q9Y210)
T1 construct: expressed in transfected cells
T1 sequence (Q9Y210 1-931): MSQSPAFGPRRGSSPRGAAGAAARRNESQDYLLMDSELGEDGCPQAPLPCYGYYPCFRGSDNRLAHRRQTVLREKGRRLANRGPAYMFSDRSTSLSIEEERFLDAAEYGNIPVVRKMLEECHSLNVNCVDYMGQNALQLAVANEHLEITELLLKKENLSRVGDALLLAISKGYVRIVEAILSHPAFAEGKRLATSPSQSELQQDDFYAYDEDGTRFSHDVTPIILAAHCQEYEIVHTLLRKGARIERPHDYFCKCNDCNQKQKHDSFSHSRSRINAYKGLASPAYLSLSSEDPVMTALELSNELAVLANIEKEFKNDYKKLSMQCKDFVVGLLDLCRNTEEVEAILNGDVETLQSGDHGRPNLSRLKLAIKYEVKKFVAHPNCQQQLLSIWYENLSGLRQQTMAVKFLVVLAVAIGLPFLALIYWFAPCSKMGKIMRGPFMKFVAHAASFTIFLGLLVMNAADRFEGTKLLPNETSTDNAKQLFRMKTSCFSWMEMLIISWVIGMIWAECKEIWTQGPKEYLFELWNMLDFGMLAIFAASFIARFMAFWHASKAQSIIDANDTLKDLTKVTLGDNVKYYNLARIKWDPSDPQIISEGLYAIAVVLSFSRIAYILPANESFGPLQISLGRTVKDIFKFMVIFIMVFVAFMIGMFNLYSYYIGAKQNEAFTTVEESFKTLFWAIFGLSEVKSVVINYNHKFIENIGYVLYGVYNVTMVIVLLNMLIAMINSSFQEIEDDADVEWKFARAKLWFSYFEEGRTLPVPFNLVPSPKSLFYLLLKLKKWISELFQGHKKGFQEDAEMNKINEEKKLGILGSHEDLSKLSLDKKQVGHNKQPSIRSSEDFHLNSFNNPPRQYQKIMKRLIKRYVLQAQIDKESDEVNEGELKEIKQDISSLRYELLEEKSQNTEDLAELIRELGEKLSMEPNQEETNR
Test: TRPC6 calcium flux assay (FLIPR, OAG-stimulated calcium influx)
Assay type: cell-based
Settings: HEK293 cells stably transfected with human TRPC6, read-out: hTRPC6 Potency
Procedure, shortened: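 HEK293 cells stably expressing human TRPC6, loaded with calcium dye 90–120 min at RT, then given compound for 25 min before OAG (50 uM final, 0.5% DMSO) in HEPES buffer pH 7.2 with 2 mM CaCl2. Background-subtracted FLIPR peak over 180 s normalized to OAG vs buffer; IC50 from dose plot.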

Row | IC50 [nM] | Compound
1 | 21.2 | C[C@@H](C#N)N(C)C(=O)Cn1c(N2CC[C@@H](F)[C@H](N)C2)nc2cc(F)c(F)cc21 [Example 610, 2-(2-((3R,4R)-3-amino-4-fluoropiperidin-1-yl)-5,6-difluoro-1H-benzo[d]imidazol-1-yl)-N-((S)-1-cyanoethyl)-N-methylacetamide]
2 | 2480 | N#Cc1ccc(Cn2c(N3CCC[C@](N)(CO)C3)nc3ccccc32)nc1 [Example 105, (R)-6-((2-(3-amino-3-(hydroxymethyl)piperidin-1-yl)-1H-benzo[d]imidazol-1-yl)methyl)nicotinonitrile]
3 | 0.584 | N#Cc1ccc(Cn2c(N3CCC[C@H](N)C3)nc3c(Cl)cccc32)cc1 [Example 418, (S)-4-((2-(3-aminopiperidin-1-yl)-4-chloro-1H-benzo[d]imidazol-1-yl)methyl)benzonitrile 2,2,2-trifluoroacetate]
4 | 0.328 | C[C@@H](c1ccc(C#N)cn1)n1c(N2CC[C@H]3OCCN[C@@H]3C2)nc2cc(F)cc(F)c21 [Example 274, 6-((1S)-1-(5,7-difluoro-2-((4aR,8aR)-hexahydro-2H-pyrido[4,3-b][1,4]oxazin-6(5H)-yl)-1H-benzimidazol-1-yl)ethyl)-3-pyridinecarbonitrile]
5 | 128 | N#Cc1ccc(Cn2c(N3CCC[C@H](N)C3)nc3cccnc32)cc1 [Example 419, (S)-4-((2-(3-aminopiperidin-1-yl)-3H-imidazo[4,5-b]pyridin-3-yl)methyl)benzonitrile hydrochloride]
6 | 33.9 | CO[C@H]1CCN(c2nc3ccc(F)cc3n2Cc2ccc(C#N)cn2)C[C@H]1N [Example 463, 6-((2-((3R,4S)-3-amino-4-methoxypiperidin-1-yl)-6-fluoro-1H-benzo[d]imidazol-1-yl)methyl)nicotinonitrile]
7 | 2.04 | N[C@H]1CCCN(c2nc3ccccc3n2Cc2ccc(Cl)cc2)C1 [Example 316, (S)-1-(1-(4-chlorobenzyl)-1H-benzo[d]imidazol-2-yl)piperidin-3-amine hydrochloride]
8 | 8.44 | CO[C@@H]1CCN(c2nc3ccc(F)cc3n2Cc2ncc(Cl)cn2)C[C@H]1N (single isomer, unassigned) [Example 456]
9 | 0.456 | N#Cc1ccc(Cn2c(N3CC[C@H](F)[C@H](N)C3)nc3ccc(Cl)cc32)cc1 [Example 401, 4-((2-((3R,4S)-3-amino-4-fluoropiperidin-1-yl)-6-chloro-1H-benzo[d]imidazol-1-yl)methyl)benzonitrile hydrochloride]
10 | 134 | N#Cc1ccc(Cn2c(N3CC[C@H](O)[C@@H](N)C3)nc3ccccc32)nc1 [Example 96, 6-((2-((3S,4S)-3-amino-4-hydroxypiperidin-1-yl)-1H-benzo[d]imidazol-1-yl)methyl)nicotinonitrile]
11 | 269 | N#Cc1ccc(Cn2c(N3CCC[C@@]4(CCCCN4)C3)nc3ccccc32)nc1 [Example 130, 6-((2-((6S)-1,8-diazaspiro[5.5]undecan-8-yl)-1H-benzimidazol-1-yl)methyl)-3-pyridinecarbonitrile]
12 | 11.8 | COc1ccc2c(c1)nc(N1CC[C@H](F)[C@H](N)C1)n2Cc1ccc(C#N)cn1 [Example 148, 6-((2-((3R,4S)-3-amino-4-fluoropiperidin-1-yl)-5-methoxy-1H-benzo[d]imidazol-1-yl)methyl)nicotinonitrile hydrochloride]
13 | 168 | C[C@@H]1COCCN1C(=O)Cn1c(N2CC[C@@H](F)[C@H](N)C2)nc2ccc(F)cc21 [Example 681, 2-(2-((3R,4R)-3-amino-4-fluoropiperidin-1-yl)-6-fluoro-1H-benzo[d]imidazol-1-yl)-1-((R)-3-methylmorpholino)ethan-1-one]
14 | 0.491 | N[C@@H]1CN(c2nc3c(F)cc(F)cc3n2Cc2ncc(F)cn2)CC[C@H]1F [Example 35, (3R,4R)-1-(4,6-difluoro-1-((5-fluoropyrimidin-2-yl)methyl)-1H-benzo[d]imidazol-2-yl)-4-fluoropiperidin-3-amine]
15 | 210 | N#Cc1ccc(Cn2c(N3CCC4CCN[C@@H]4C3)nc3ccccc32)nc1 (stereo partly drawn) [Example 25, 6-((2-((3aS,7aS)-hexahydro-1H-pyrrolo[2,3-c]pyridin-6(2H)-yl)-1H-benzo[d]imidazol-1-yl)methyl)nicotinonitrile]
16 | 279 | N[C@@H]1CN(c2nc3ccc(F)cc3n2CC(=O)NCC(F)(F)F)CC[C@H]1F [Example 661, 2-(2-((3R,4R)-3-amino-4-fluoropiperidin-1-yl)-6-fluoro-1H-benzo[d]imidazol-1-yl)-N-(2,2,2-trifluoroethyl)acetamide]
17 | > 3750 | N[C@@H]1CN(c2nc3cc(F)c(F)cc3n2CC(=O)N2CCN3C(=O)OCC3C2)CC[C@H]1F (stereo partly drawn) [Example 659, 7-(2-(2-((3R,4R)-3-amino-4-fluoropiperidin-1-yl)-5,6-difluoro-1H-benzo[d]imidazol-1-yl)acetyl)tetrahydro-1H-oxazolo[3,4-a]pyrazin-3(5H)-one]
18 | 185 | CN1CCC(n2c(N3CC[C@@H](F)[C@H](N)C3)nc3cc(F)c(F)cc32)C1=O (mixture of isomers) [Example 238, 3-(2-((3R,4R)-3-amino-4-fluoropiperidin-1-yl)-5,6-difluoro-1H-benzo[d]imidazol-1-yl)-1-methylpyrrolidin-2-one]
19 | 54.9 | C[C@H](c1ccc(Cl)cn1)n1c(N2CC[C@@H](F)[C@H](N)C2)nc2ccc(Cl)cc21 [Example 221, (3R,4R)-1-(6-chloro-1-((R)-1-(5-chloropyridin-2-yl)ethyl)-1H-benzo[d]imidazol-2-yl)-4-fluoropiperidin-3-amine hydrochloride]
20 | 20.8 | CS(=O)(=O)c1ccc(Cn2c(N3CC[C@@H](F)[C@H](N)C3)nc3cc(F)c(F)cc32)nc1 [Example 562, (3R,4R)-1-(5,6-difluoro-1-((5-(methylsulfonyl)pyridin-2-yl)methyl)-1H-benzo[d]imidazol-2-yl)-4-fluoropiperidin-3-amine]
21 | 51.5 | C[C@@H](c1ccc(C#N)cn1)n1c(N2CC[C@H]3OCCN[C@@H]3C2)nc2c(F)cc(F)cc21 [Example 270, 6-((1S)-1-(4,6-difluoro-2-((4aR,8aR)-hexahydro-2H-pyrido[4,3-b][1,4]oxazin-6(5H)-yl)-1H-benzimidazol-1-yl)ethyl)-3-pyridinecarbonitrile]
22 | 12.7 | N[C@@H]1CN(c2nc3ccc(Cl)cc3n2CC(=O)N2CCOCC2)CC[C@H]1F [Example 495, 2-(2-((3R,4R)-3-amino-4-fluoropiperidin-1-yl)-6-chloro-1H-benzo[d]imidazol-1-yl)-1-morpholinoethanone]
23 | > 3750 | N[C@@H]1CN(c2nc3cc(F)c(F)cc3n2CC(=O)N(CCO)Cc2cccnc2)CC[C@H]1F [Example 655, 2-(2-((3R,4R)-3-amino-4-fluoropiperidin-1-yl)-5,6-difluoro-1H-benzo[d]imidazol-1-yl)-N-(2-hydroxyethyl)-N-(pyridin-3-ylmethyl)acetamide]
24 | 1430 | Cn1ncc2c(Cn3c(N4CC[C@@H](F)[C@H](N)C4)nc4cc(F)c(F)cc43)cccc21 [Example 259, (3R,4R)-1-(5,6-difluoro-1-((1-methyl-1H-indazol-4-yl)methyl)-1H-benzimidazol-2-yl)-4-fluoro-3-piperidinamine]
25 | 204 | C[C@@H](c1ccc(F)cc1F)n1c(N2CC[C@@H](F)[C@H](N)C2)nc2cc(F)c(F)cc21 [Example 331, (3R,4R)-1-(1-((1S)-1-(2,4-difluorophenyl)ethyl)-5,6-difluoro-1H-benzimidazol-2-yl)-4-fluoro-3-piperidinamine]
26 | 0.32 | N[C@@H]1CN(c2nc3cc(F)c(F)cc3n2Cc2ccc(F)cn2)CC[C@H]1F [Example 228, (3R,4R)-1-(5,6-difluoro-1-((5-fluoropyridin-2-yl)methyl)-1H-benzo[d]imidazol-2-yl)-4-fluoropiperidin-3-amine hydrochloride]
27 | 901 | C[C@@H](CC#N)NC(=O)Cn1c(N2CC[C@@H](F)[C@H](N)C2)nc2ccc(F)cc21 [Example 669, 2-(2-((3R,4R)-3-amino-4-fluoropiperidin-1-yl)-6-fluoro-1H-benzo[d]imidazol-1-yl)-N-((S)-1-cyanopropan-2-yl)acetamide]
28 | 0.704 | N#Cc1cc(Cl)ccc1Cn1c(N2CC[C@@H](F)[C@H](N)C2)nc2cc(F)c(F)cc21 [Example 340, 2-((2-((3R,4R)-3-amino-4-fluoro-1-piperidinyl)-5,6-difluoro-1H-benzimidazol-1-yl)methyl)-5-chlorobenzonitrile]

Reference: US11332459B2 (TEIJIN PHARMA LIMITED, priority 2017, dated 2022)
